This is an account of results in the supplement of paper PMC10307832.

Common to all, as to assay: relative viability (nuclei count vs DMSO), 5 days (fraction); higher = more cells survive
Compound in the test “BAY61-3606 + Lapatinib”: COC1=C(C=C(C=C1)C2=CC3=NC=CN3C(=N2)NC4=C(C=CC=N4)C(=O)N)OC [BAY61-3606] + CS(=O)(=O)CCNCc1ccc(-c2ccc3ncnc(Nc4ccc(OCc5cccc(F)c5)c(Cl)c4)c3c2)o1 [Lapatinib] (partner 2 µM)
The procedure, abridged:
(§1)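 One day after seeding in 1536-well plates, lung cancer cell lines were dosed by pin tool. Dosing was either single-drug or a fixed anchor-drug dose plus five library-drug doses (not always all listed) in √10 steps. After 5 days, nuclei were stained in one fix-and-stain step and counted on 4× images, and relative viability is the nuclei count of treated wells over that of vehicle wells, given as the median of duplicate plates.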

Compound in the test “BAY61-3606 + Linsitinib”: COC1=C(C=C(C=C1)C2=CC3=NC=CN3C(=N2)NC4=C(C=CC=N4)C(=O)N)OC [BAY61-3606] + C[C@]1(O)C[C@@H](c2nc(-c3ccc4ccc(-c5ccccc5)nc4c3)c3c(N)nccn32)C1 [Linsitinib] (partner 1 µM)
The procedure, abridged: as §1

Compound in the test “Doxorubicin + Tozasertib”: COc1cccc2c1C(=O)c1c(O)c3c(c(O)c1C2=O)C[C@@](O)(C(=O)CO)C[C@@H]3O[C@H]1C[C@H](N)[C@H](O)[C@H](C)O1 [Doxorubicin] + Cc1cc(Nc2cc(N3CCN(C)CC3)nc(Sc3ccc(NC(=O)C4CC4)cc3)n2)n[nH]1 [Tozasertib] (partner 0.1 µM)
The procedure, abridged:
as §1

Compound in the test “Doxorubicin + Decitabine”: COc1cccc2c1C(=O)c1c(O)c3c(c(O)c1C2=O)C[C@@](O)(C(=O)CO)C[C@@H]3O[C@H]1C[C@H](N)[C@H](O)[C@H](C)O1 [Doxorubicin] + Nc1ncn([C@H]2C[C@H](O)[C@@H](CO)O2)c(=O)n1 [Decitabine] (partner 2 µM)
In a few lines:
as §1

As for UMC-11, the relative viability amounted to 1.16 with BAY61-3606 + Lapatinib (first compound 0.02 µM); 0.944 with BAY61-3606 + Lapatinib (first compound 0.06325 µM); 0.832 with BAY61-3606 + Lapatinib (first compound 0.2 µM); 1.1 in the test with BAY61-3606 + Lapatinib (first compound 0.6325 µM); 0.958 with BAY61-3606 + Lapatinib (first compound 2 µM); 1.08 with BAY61-3606 + Linsitinib (first compound 0.02 µM). In addition, the relative viability was found to be 1.11 with BAY61-3606 + Linsitinib (first compound 0.06325 µM); 0.995 with BAY61-3606 + Linsitinib (first compound 0.2 µM); 1.08 with BAY61-3606 + Linsitinib (first compound 0.6325 µM); 1 with BAY61-3606 + Linsitinib (first compound 2 µM); 0.22 with Doxorubicin + Tozasertib (first compound 0.001 µM); 0.215 in the test with Doxorubicin + Tozasertib (first compound 0.003162 µM). The relative viability in the test with Doxorubicin + Tozasertib (first compound 0.01 µM) was found to be 0.209; with Doxorubicin + Tozasertib (first compound 0.03162 µM) it was 0.21; with Doxorubicin + Tozasertib (first compound 0.1 µM) it was 0.208; with Doxorubicin + Decitabine (first compound 0.001 µM), 0.641; with Doxorubicin + Decitabine (first compound 0.003162 µM) it was 0.497; in the test with Doxorubicin + Decitabine (first compound 0.01 µM) it was 0.619. For the same cell line, the relative viability turned out to be 0.385 with Doxorubicin + Decitabine (first compound 0.03162 µM) and 0.41 in the test with Doxorubicin + Decitabine (first compound 0.1 µM).
